Measured values as given in PubChem BioAssay AID2060885 (Molecular Pharmacology Branch, DTP, NCI, 2025).

Tested on: NCI-H23 complex spheroids with HUVEC/MSC, viability
Experiment: Anticancer human tumor NCI-H23 cell line growth inhibition [RAS];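 further: spheroids exposed to compound for 7 days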;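 on viability, T/C: 100% = DMSO vehicle control viability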
Details: for IC50: curve of first compound; for viability, T/C: stronger effect = lower value
Outline: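 Multi-cell-type spheroids: tumor cells plus HUVEC endothelial cells and mesenchymal stem cells. RAS-pathway inhibitors were combined with targeted agents, each dosed in half-log steps down from clinical Cmax, or from 10 microM when Cmax was unknown.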

[1] = second compound 0.000949 µM, first compound 0.00316 µM
[2] = second compound 0.000949 µM, first compound 0.01 µM
[3] = second compound 0.000949 µM, first compound 0.0316 µM
[4] = second compound 0.000949 µM, first compound 0.1 µM
[5] = second compound 0.000949 µM, first compound 0.316 µM
[6] = second compound 0.000949 µM, first compound 1 µM
[7] = second compound 0.003 µM, first compound 0.00316 µM
[8] = second compound 0.003 µM, first compound 0.01 µM
[9] = second compound 0.003 µM, first compound 0.0316 µM
[10] = second compound 0.003 µM, first compound 0.1 µM
[11] = second compound 0.003 µM, first compound 0.316 µM
[12] = second compound 0.003 µM, first compound 1 µM
[13] = second compound 0.00949 µM, first compound 0.00316 µM
[14] = second compound 0.00949 µM, first compound 0.01 µM
[15] = second compound 0.00949 µM, first compound 0.0316 µM
[16] = second compound 0.00949 µM, first compound 0.1 µM
[17] = second compound 0.00949 µM, first compound 0.316 µM
[18] = second compound 0.00949 µM, first compound 1 µM
[19] = second compound 0.03 µM, first compound 0.00316 µM
[20] = second compound 0.03 µM, first compound 0.01 µM
[21] = second compound 0.03 µM, first compound 0.0316 µM
[22] = second compound 0.03 µM, first compound 0.1 µM
[23] = second compound 0.03 µM, first compound 0.316 µM
[24] = second compound 0.03 µM, first compound 1 µM
[25] = second compound 0.0949 µM, first compound 0.00316 µM
[26] = second compound 0.0949 µM, first compound 0.01 µM
[27] = second compound 0.0949 µM, first compound 0.0316 µM
[28] = second compound 0.0949 µM, first compound 0.1 µM
[29] = second compound 0.0949 µM, first compound 0.316 µM
[30] = second compound 0.0949 µM, first compound 1 µM
[31] = second compound 0.3 µM, first compound 0.00316 µM
[32] = second compound 0.3 µM, first compound 0.01 µM
[33] = second compound 0.3 µM, first compound 0.0316 µM
[34] = second compound 0.3 µM, first compound 0.1 µM
[35] = second compound 0.3 µM, first compound 0.316 µM
[36] = second compound 0.3 µM, first compound 1 µM

Structure (SMILES): C=CC(=O)Nc1cc(Nc2nccc(-c3cn(C)c4ccccc34)n2)c(OC)cc1N(C)CCN(C)C + CCn1c(-c2cccnc2C(C)OC)c2c3cc(ccc31)N1CCOC(CC(NC(=O)C(C(C)C)N(C)C(=O)C3(F)CCN(C(=O)C#CC(C)(C)N(C)C)CC3)C(=O)N3CCCC(N3)C(=O)OCC(C)(C)C2)C1
- IC50 (second compound 0.000949 µM): < 3.16 nM
- IC50 (second compound 0.003 µM): 719 nM
- IC50 (second compound 0.00949 µM): < 3.16 nM
- IC50 (second compound 0.03 µM): < 3.16 nM
- IC50 (second compound 0.0949 µM): < 3.16 nM
- IC50 (second compound 0.3 µM): < 3.16 nM
- viability, T/C [1]: 38.8%
- viability, T/C [2]: 38.4%
- viability, T/C [3]: 29%
- viability, T/C [4]: 28.6%
- viability, T/C [5]: 25.8%
- viability, T/C [6]: 20.1%
- viability, T/C [7]: 99.9%
- viability, T/C [8]: 44.7%
- viability, T/C [9]: 101%
- viability, T/C [10]: 120%
- viability, T/C [11]: 102%
- viability, T/C [12]: 32.5%
- viability, T/C [13]: 35.5%
- viability, T/C [14]: 28.9%
- viability, T/C [15]: 31.1%
- viability, T/C [16]: 30.5%
- viability, T/C [17]: 23.9%
- viability, T/C [18]: 22.2%
- viability, T/C [19]: 31.2%
- viability, T/C [20]: 26.7%
- viability, T/C [21]: 30.9%
- viability, T/C [22]: 30.9%
- viability, T/C [23]: 18.3%
- viability, T/C [24]: 23.1%
- viability, T/C [25]: 27.1%
- viability, T/C [26]: 28.6%
- viability, T/C [27]: 31%
- viability, T/C [28]: 26.7%
- viability, T/C [29]: 19.2%
- viability, T/C [30]: 21.6%
- viability, T/C [31]: 25.5%
- viability, T/C [32]: 26.7%
- viability, T/C [33]: 24.6%
- viability, T/C [34]: 23%
- viability, T/C [35]: 22.9%
- viability, T/C [36]: 21.6%

Structure (SMILES): CC(Nc1ccc2c(c1)OCCn1cc(N3C(=O)OCC3C(F)F)nc1-2)C(N)=O (stereo unspecified) + CCn1c(-c2cccnc2C(C)OC)c2c3cc(ccc31)N1CCOC(CC(NC(=O)C(C(C)C)N(C)C(=O)C3(F)CCN(C(=O)C#CC(C)(C)N(C)C)CC3)C(=O)N3CCCC(N3)C(=O)OCC(C)(C)C2)C1
- IC50 (second compound 0.000949 µM): < 31.6 nM
- IC50 (second compound 0.003 µM): < 31.6 nM
- IC50 (second compound 0.00949 µM): < 31.6 nM
- IC50 (second compound 0.03 µM): < 31.6 nM
- IC50 (second compound 0.0949 µM): < 31.6 nM
- IC50 (second compound 0.3 µM): < 31.6 nM
- viability, T/C [3]: 29.1%
- viability, T/C [4]: 22.3%
- viability, T/C [5]: 21%
- viability, T/C [6]: 23.1%
- viability, T/C (second compound 0.000949 µM, first compound 3.16 µM): 21.2%
- viability, T/C (second compound 0.000949 µM, first compound 10 µM): 14%
- viability, T/C [9]: 28.8%
- viability, T/C [10]: 23.6%
- viability, T/C [11]: 19.2%
- viability, T/C [12]: 21%
- viability, T/C (second compound 0.003 µM, first compound 3.16 µM): 21.1%
- viability, T/C (second compound 0.003 µM, first compound 10 µM): 13.9%
- viability, T/C [15]: 28.1%
- viability, T/C [16]: 21.2%
- viability, T/C [17]: 20.8%
- viability, T/C [18]: 19.1%
- viability, T/C (second compound 0.00949 µM, first compound 3.16 µM): 18.2%
- viability, T/C (second compound 0.00949 µM, first compound 10 µM): 14.7%
- viability, T/C [21]: 23.1%
- viability, T/C [22]: 24.4%
- viability, T/C [23]: 20.3%
- viability, T/C [24]: 18.3%
- viability, T/C (second compound 0.03 µM, first compound 3.16 µM): 17%
- viability, T/C (second compound 0.03 µM, first compound 10 µM): 16%
- viability, T/C [27]: 24.7%
- viability, T/C [28]: 21.1%
- viability, T/C [29]: 22.5%
- viability, T/C [30]: 20.7%
- viability, T/C (second compound 0.0949 µM, first compound 3.16 µM): 13.8%
- viability, T/C (second compound 0.0949 µM, first compound 10 µM): 16.6%
- viability, T/C [33]: 22.4%
- viability, T/C [34]: 21.3%
- viability, T/C [35]: 20.1%
- viability, T/C [36]: 15%
- viability, T/C (second compound 0.3 µM, first compound 3.16 µM): 16.7%
- viability, T/C (second compound 0.3 µM, first compound 10 µM): 14.9%

Structure (SMILES): O=C(c1ccc(F)c(F)c1Nc1ccc(I)cc1F)N1CC(O)([C@@H]2CCCCN2)C1 + CCn1c(-c2cccnc2C(C)OC)c2c3cc(ccc31)N1CCOC(CC(NC(=O)C(C(C)C)N(C)C(=O)C3(F)CCN(C(=O)C#CC(C)(C)N(C)C)CC3)C(=O)N3CCCC(N3)C(=O)OCC(C)(C)C2)C1
- IC50 (second compound 0.000949 µM): < 3.16 nM
- IC50 (second compound 0.003 µM): 26 nM
- IC50 (second compound 0.00949 µM): < 3.16 nM
- IC50 (second compound 0.03 µM): < 3.16 nM
- IC50 (second compound 0.0949 µM): < 3.16 nM
- IC50 (second compound 0.3 µM): < 3.16 nM
- viability, T/C [1]: 32.3%
- viability, T/C [2]: 33.2%
- viability, T/C [3]: 26.2%
- viability, T/C [4]: 31.8%
- viability, T/C [5]: 16.7%
- viability, T/C [6]: 6.86%
- viability, T/C [7]: 112%
- viability, T/C [8]: 54.8%
- viability, T/C [9]: 51.7%
- viability, T/C [10]: 42.8%
- viability, T/C [11]: 27.8%
- viability, T/C [12]: 10.3%
- viability, T/C [13]: 34.5%
- viability, T/C [14]: 25.4%
- viability, T/C [15]: 29.8%
- viability, T/C [16]: 25.9%
- viability, T/C [17]: 14.6%
- viability, T/C [18]: 8.22%
- viability, T/C [19]: 30.1%
- viability, T/C [20]: 30.7%
- viability, T/C [21]: 28.3%
- viability, T/C [22]: 25.4%
- viability, T/C [23]: 12.6%
- viability, T/C [24]: 9.45%
- viability, T/C [25]: 29.1%
- viability, T/C [26]: 30.2%
- viability, T/C [27]: 30.9%
- viability, T/C [28]: 22.3%
- viability, T/C [29]: 11%
- viability, T/C [30]: 9.76%
- viability, T/C [31]: 29.4%
- viability, T/C [32]: 26.3%
- viability, T/C [33]: 26.5%
- viability, T/C [34]: 19.8%
- viability, T/C [35]: 11%
- viability, T/C [36]: 9.07%
